Experiments:
[1] = tested on: P. aeruginosa PAO-1; test: Bactericidal activity test (MBC, phenol coefficient measuring method); format: cell-based
How it was run: (§1)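 Using a phenol-coefficient format, the cell suspension (1×10^7/ml) is added to twofold compound dilutions, sampled after 1, 3 and 5 minutes and regrown in heart infusion bouillon at 37° C. The MBC, in μg/ml, is the minimum concentration without growth in two or more of three tests.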

[2] = tested on: E. coli NIHJ JC-2; test: as above; format: cell-based
How it was run: as §1

[3] = tested on: P. aeruginosa No. 12; test: as above; format: cell-based
How it was run: as §1

[4] = tested on: P. aeruginosa KM 97-5; test: as above; format: cell-based
How it was run: as §1

[5] = tested on: S. aureus 209PJC; test: as above; format: cell-based
How it was run: as §1

[6] = tested on: P. aeruginosa PAO-1; test: Antibacterial activity test (MIC); format: cell-based; settings: Mueller-Hinton Broth, 37° C., 20 to 24 hours
How it was run: (§2)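 Broth dilution MIC per Japanese Society of Chemotherapy method, in Mueller-Hinton Broth with inoculum of 10^5/ml from 16–20 h cultures at 37° C. Compound (methanol-dissolved) tested at 100 μg/ml and 2^n-fold (n=−10 to 1) twofold steps; MIC expressed in μg/ml.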

[7] = tested on: E. coli NIHJ JC-2; test: Antibacterial activity test (MIC); format: cell-based; settings: Mueller-Hinton Broth, 37° C., 20 to 24 hours
How it was run: as §2

[8] = tested on: P. aeruginosa No. 12; test: Antibacterial activity test (MIC); format: cell-based; settings: Mueller-Hinton Broth, 37° C., 20 to 24 hours
How it was run: as §2

[9] = tested on: P. aeruginosa KM 97-5; test: Antibacterial activity test (MIC); format: cell-based; settings: Mueller-Hinton Broth, 37° C., 20 to 24 hours
How it was run: as §2

[10] = tested on: S. aureus 209PJC; test: Antibacterial activity test (MIC); format: cell-based; settings: Mueller-Hinton Broth, 37° C., 20 to 24 hours
How it was run: as §2

[11] = tested on: VRE 49; test: Bactericidal activity test (MBC, phenol coefficient measuring method); format: cell-based, vancomycin-resistant enterococci
Description: As a test bacterium, the same bacteria species as those of the antibacterial activity test were used; as a medium to be used, a SCD medium (manufactured by Eiken Chemical Co., Ltd.) was used for pre-culture medium; and a heart infusion bouillon medium (manufactured by Eiken Chemical Co., Ltd.) was used as a medium for growing a live bacterium in a test solution after bactericidal treatment. One platinum loop of a test bacterium was inoculated into 20 ml of a medium, and static culture was carried out at 37° C. for 18 to 20 hours, and the cells were adjusted with a sterilized physiological saline to 1×10^7/ml, which was used as a test bacterium solution.
Then, a solution of each compound in methanol was subjected to ½ stepwise dilution with sterilized water, each 5 ml was dispensed into a test tube, 0.5 ml of the previously prepared test bacterium solution was added thereto, and the mixture was blended well. After 1 minute, 3 minutes and 5 minutes has passed, 5 μl of the test solution was collected and inoculated into 2 ml of a heart infusion bouillon medium, this was cultured at 37° C. for 40 to 48 hours, and the presence or absence of growth of a bacterium was determined. A test was performed three times, a minimum concentration at which growth of a bacterium was not recognized two or more times was adopted as a minimal bactericidal concentration (MBC value).
Numerical values in Tables represent MBC expressed in μg/ml unit.

[12] = tested on: VRE 49; test: Antibacterial activity test (MIC); format: cell-based, vancomycin-resistant enterococci; settings: Mueller-Hinton Broth, 37° C., 20 to 24 hours
Description: Regarding compounds obtained in respective Working Examples, in order to investigate antibacterial activity, minimal inhibitory concentration (MIC) was determined according to a standard method of Japanese Society of Chemotherapy.
As a test bacterium, nine kinds of S. aureus 209PJC, MRSA 97-115, MRSA KM 97-53, MRSA KM97-108, VRE 49, E. coli NIHJ JC-2, P. aeruginosa PAO-1, P. aeruginosa No. 12, P. aeruginosa KM97-5 were used and, as a medium, Mueller-Hinton Broth (DIFCO) was used. One platinum loop of a test bacterium was inoculated into 20 ml of a medium, and static culture was carried out at 37° C. for 16 to 20 hours, and then each bacterium species was diluted with a sterilized physiological saline to 10^5/ml, which was used as a test bacterium solution.
Then, each compound was dissolved in methanol, subjected to ½ stepwise dilution with a medium to prepare a medium for measuring sensitivity, and each 2 ml was dispensed into a test tube. A compound concentration in a medium was adjusted to 100 μg/ml and its 2^n-fold (n=−10 to 1).
Numerical values in Tables represent MIC expressed in μg/ml unit.

[13] = tested on: MRSA 97-115; test: Bactericidal activity test (MBC, phenol coefficient measuring method); format: cell-based, methicillin-resistant Staphylococcus aureus
How it was run: as §1

[14] = tested on: MRSA KM 97-108; test: as above; format: cell-based, methicillin-resistant Staphylococcus aureus
How it was run: as §1

[15] = tested on: MRSA KM 97-53; test: as above; format: cell-based, methicillin-resistant Staphylococcus aureus
How it was run: as §1

[16] = tested on: MRSA 97-115; test: Antibacterial activity test (MIC); format: cell-based, methicillin-resistant Staphylococcus aureus; settings: Mueller-Hinton Broth, 37° C., 20 to 24 hours
How it was run: as §2

[17] = tested on: MRSA KM 97-108; test: Antibacterial activity test (MIC); format: cell-based, methicillin-resistant Staphylococcus aureus; settings: Mueller-Hinton Broth, 37° C., 20 to 24 hours
How it was run: as §2

[18] = tested on: MRSA KM 97-53; test: Antibacterial activity test (MIC); format: cell-based, methicillin-resistant Staphylococcus aureus; settings: Mueller-Hinton Broth, 37° C., 20 to 24 hours
How it was run: as §2

CC(=O)O.CCCCCCCCNC1=NC(C)(C)N=C(NCCCCCC)N1 [compound 68]
25 µg/mL: minimal bactericidal concentration (MBC) ([11]; 1 min) | minimal bactericidal concentration (MBC) ([11]; 3 min) | minimal bactericidal concentration (MBC) ([14]; 3 min) | minimal bactericidal concentration (MBC) ([14]; 5 min) | minimal bactericidal concentration (MBC) ([15]; 3 min) | minimal bactericidal concentration (MBC) ([15]; 5 min)
1.6 µg/mL: minimal bactericidal concentration (MBC) ([1]; 5 min) | minimal bactericidal concentration (MBC) ([3]; 5 min) | minimal inhibitory concentration (MIC) [12] | minimal inhibitory concentration (MIC) [17] | minimal inhibitory concentration (MIC) [18]
3.1 µg/mL: minimal bactericidal concentration (MBC) ([1]; 3 min) | minimal bactericidal concentration (MBC) ([3]; 1 min) | minimal bactericidal concentration (MBC) ([3]; 3 min)
0.8 µg/mL: minimal inhibitory concentration (MIC) [10] | minimal inhibitory concentration (MIC) [16]
6.3 µg/mL: minimal bactericidal concentration (MBC) ([1]; 1 min) | minimal bactericidal concentration (MBC) ([2]; 3 min) | minimal bactericidal concentration (MBC) ([2]; 5 min) | minimal bactericidal concentration (MBC) ([4]; 3 min) | minimal bactericidal concentration (MBC) ([4]; 5 min) | minimal bactericidal concentration (MBC) ([5]; 3 min) | minimal bactericidal concentration (MBC) ([5]; 5 min) | minimal bactericidal concentration (MBC) ([13]; 3 min) | minimal bactericidal concentration (MBC) ([13]; 5 min)
50 µg/mL: minimal inhibitory concentration (MIC) [6] | minimal inhibitory concentration (MIC) [8] | minimal inhibitory concentration (MIC) [9] | minimal bactericidal concentration (MBC) ([14]; 1 min) | minimal bactericidal concentration (MBC) ([15]; 1 min)
12.5 µg/mL: minimal bactericidal concentration (MBC) ([2]; 1 min) | minimal bactericidal concentration (MBC) ([4]; 1 min) | minimal bactericidal concentration (MBC) ([5]; 1 min) | minimal inhibitory concentration (MIC) [7] | minimal bactericidal concentration (MBC) ([11]; 5 min) | minimal bactericidal concentration (MBC) ([13]; 1 min)

From patent publication US7622469B2, “2,4-diamino-1,3,5-triazine derivatives” (Hamari Chemicals, Ltd., priority 2002, dated 2009)
